Measured values published in patent US20260209249A1, “NOVEL TRICYCLIC COMPOUND AS KRAS G12D INHIBITOR, AND USE THEREOF” (SK Biopharmaceuticals Co., priority 2022, published 2026).

Experiments:
[1] = molecular target: T1, GDP-KRAS G12D mutant protein (Homo sapiens, UniProt P01116, G12D); test: Differential scanning fluorimetry (DSF) binding affinity to GDP-KRAS G12D mutant protein; details: DSF thermal shift, 10 μM compound, 4 μg KRAS protein
T1 construct: purchased Daegu Gyeongbuk Medical Innovation Foundation (DGMIF), made to order
In short: (§1)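 Thermal shift ΔTm was measured at 10 μM compound over a 25–99 °C ramp (0.05 °C/s), read at 580 nm ex/623 nm em with SYPRO Orange (2×). The protein (4 μg) was preincubated with compound for 30 min at room temperature, in 50 mM HEPES pH 7.5 for GppNHp-KRAS G12D or in kit buffer for GDP-KRAS G12D.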

[2] = molecular target: T2, GppNHp-KRAS G12D mutant protein (Homo sapiens, UniProt P01116, G12D); test: Differential scanning fluorimetry (DSF) binding affinity to GppNHp-KRAS G12D mutant protein; details: DSF thermal shift, 10 μM compound, 4 μg KRAS protein, 50 mM HEPES (pH 7.5)
T2 construct: purchased Daegu Gyeongbuk Medical Innovation Foundation (DGMIF), made to order
In short: as §1

[3] = system: ERK phosphorylation (pERK) induced by KRAS G12D mutation; test: Inhibitory activity against ERK phosphorylation (pERK) induced by KRAS G12D mutation, immunofluorescence assay in AsPC-1 cells; assay type: cell-based; details: Homo sapiens, ASPC1, 3 h drug treatment, pERK (Thr202/Tyr204) signal normalized to DAPI
In short: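 AsPC-1 cells attached 16 h, then treated 3 h with 3-fold dilutions from 10 μM top. Fixed, permeabilized, immunostained for pERK (Thr202/Tyr204) with Alexa 488 secondary; high-content imaging, signal normalized to DAPI and to DMSO, IC50 from four-parameter fit.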

[4] = system: KRAS G12D mutant pancreatic cancer cell line AsPC-1; test: Cell viability assay using KRAS G12D mutant cells (AsPC-1, 3D culture, celltiter-glo 3D); assay type: cell-based; details: Homo sapiens, ASPC1, 5th day after compound treatment
In short: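 AsPC-1 cells in 3D culture, 1000 cells/well, treated next day with 1/5 serial dilutions from 10 μM or 50 μM, 1:1 v/v. Viability read by CellTiter-Glo 3D on day 5, normalized to DMSO (100%) and untreated backgrounds; IC50 from four-parameter sigmoidal fit.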

## C#Cc1c(F)ccc2cc(O)cc(-c3cc4nc(OC[C@]56CC(=C)CN5C[C@@H](F)C6)nc(N5CC6CCC(C5)N6)c4n4ccnc34)c12 [Example 39, 4-(1-((1R,5S)-3,8-diazabicyclo[3.2.1]octan-8-yl)-3-(((2S,7aR)-2-fluoro-6-methylenetetrahydro-1H-pyrrolizin-7a(51H)-yl)methoxy)imidazo[1′,2′:1,6]pyrido[3,2-d]pyrimidin-6-yl)-5-ethynyl-6-fluoronaphthalen-2-ol]
[1]
  GDP-KRAS G12D (ΔTmD, ° C.): 8.87 °C
[2]
  GppNHp-KRAS G12D (ΔTmD, ° C.): 5.61 °C
[3]
  IC50: 76 nM
[4]
  IC50: 91 nM
